{"source": "patent US6709818B1", "about": "“Methods of diagnosing and treating hepatic cell proliferative disorders” (The Johns Hopkins University School of Medicine, priority 1999, dated 2004)", "key": {"[1]": {"tested_on": "GSTP1 mRNA expression in Hep3B HCC cells", "assay": "Northern blot analysis of GSTP1 mRNA expression by Hep3B cells treated with 5-aza-dC", "conditions": "for GSTP1 mRNA expression (Northern blot): Hep3B HCC cells treated in vitro, 72 hours"}, "GSTP1 promoter alleles": {"tested_on": "GSTP1 promoter alleles", "assay": "Southern blot analysis of GSTP1 \"CpG island\" DNA hypermethylation in Hep3B cells treated with 5-aza-dC", "assay_type": "cell-based, human", "conditions": "Hep3B HCC cells treated in vitro, 72 hours", "experimental": "DNA isolated from Hep3B cells before and after exposure to 5-aza-dC in vitro was assessed for GSTP1 “CpG island” DNA hypermethylation using Southern blot analysis. Purified DNAs were digested first with HindIII and EcoRI and then extensively with the ^5-mC-sensitive restriction endonuclease BssHII. Digested DNAs were then electrophoresed on agarose gels, transferred to Zeta-Probe (DioRad) membranes, and then hybridized with ^32P-labeled GSTP1 cDNA DNA isolated from Hep3B HCC cells and from HCC and adjacent non-neoplastic tissues was also subjected to analysis for GSTP1 “CpG island” DNA hypermethylation using a ^5-mC-sensitive restriction endonuclease-polymerase chain reaction (PCR) strategy that permitted both detection of CpG dinucleotide methylation and simultaneous discrimination of maternal and paternal alleles in informative cases. […] To facilitate detection of the PCR amplification products, the downstream primer was end-labeled with [γ-^32P]ATP (Amersham) using T4 polynucleotide kinase (New England BioLabs). PCR was conducted by incubation at 95° C. for 1 min, 63° C. for 3 min, and 72° C. for 1.5 min, for 30 cycles followed by a final extension at 72° C. for 8 min. […]"}, "[2]": {"tested_on": "GSTP1 expression in Tsu-Prl PCA cells", "assay": "GSTP1 expression in Tsu-Prl PCA cells treated with 5-aza-dC", "assay_type": "cell-based, human", "conditions": "Tsu-Prl PCA cells (unmethylated GSTP1 promoter alleles), treated as for Hep3B", "from_the_text": "Assessment of GSTP1 expression."}}, "note": "Entries after “also recorded” stand apart in the source; their conditions may differ.", "data": [{"smiles": "Nc1ncn([C@H]2C[C@H](O)[C@@H](CO)O2)c(=O)n1", "note": "[5-aza-dC, 5-aza-deoxycytidine]", "values": [{"measurement": "time at which GSTP1 mRNA expression began to appear", "setting": "[1]; Hep3B HCC cells exposed for as long as 72 hours", "result": "≤ 24", "unit": "h"}, {"measurement": "GSTP1 mRNA expression (Northern blot)", "setting": "[1]", "result": "reactivation of GSTP1 mRNA expression; also recorded: appearance of detectable GSTP1 mRNA"}, {"measurement": "GSTP1 mRNA expression (Northern blot)", "setting": "[1]; listed as 5-aza-deoxycytidine", "result": "restored GSTP1 expression"}, {"measurement": "GSTP1 \"CpG island\" / promoter allele methylation (Southern blot, BssHII digestion)", "setting": "GSTP1 promoter alleles", "result": "appearance of unmethylated GSTP1 promoter alleles"}, {"measurement": "GSTP1 \"CpG island\" / promoter allele methylation (Southern blot, BssHII digestion)", "setting": "GSTP1 promoter alleles; listed as 5-aza-deoxycytidine", "result": "reversed GSTP1 “CpG island” hypermethylation"}, {"measurement": "modulation of GSTP1 expression", "setting": "[2]", "result": "no modulation of GSTP1 expression was evident"}]}]}
